Reference: patent US9434743B2, “Indazole derivatives” (TAKEDA PHARMACEUTICAL COMPANY LIMITED, priority 2012, dated 2016)

Key:
[1] = target: T1, human MetAP2 enzyme (Homo sapiens, UniProt P50579); experiment: MetAP2 enzyme assay, enzyme complexed with cobalt ions; conditions: MetAP2 Co pIC50, MetAP2 enzyme complexed with cobalt ions; Met-AMC substrate at Km
[2] = target: T1, human MetAP2 enzyme; experiment: MetAP2 enzyme assay, enzyme complexed with manganese ions; conditions: MetAP2 Mn pIC50, MetAP2 enzyme complexed with manganese ions; Met-AMC substrate at Km
Procedure: DNA encoding the full-length sequence of human MetAP2 enzyme is amplified by PCR and cloned into a pFastBac expression vector (Invitrogen). Recombinant baculovirus incorporating the MetAP2 construct is generated by transposition using the Bac-to-Bac system (Invitrogen). The expression of recombinant protein is carried out by infection of Spodoptera frugiperda Sf9 cells (Invitrogen) in 5 L Wave Bioreactors (Wave Biotech). Recombinant protein is isolated from cellular extracts by binding to an SP Hitrap Fast Flow or SP Sepharose (Sigma) column, and the protein is eluted using a NaCl gradient. Partially purified extracts of MetAP2 are further purified by an AKTA FPLC over a Superdex-200 column (GE). The purity of MetAP2 protein is determined on denaturing SDS-PAGE gel.
The results for each well are expressed as percent inhibition and calculated using the equation:

T1 sequence (P50579 whole entry): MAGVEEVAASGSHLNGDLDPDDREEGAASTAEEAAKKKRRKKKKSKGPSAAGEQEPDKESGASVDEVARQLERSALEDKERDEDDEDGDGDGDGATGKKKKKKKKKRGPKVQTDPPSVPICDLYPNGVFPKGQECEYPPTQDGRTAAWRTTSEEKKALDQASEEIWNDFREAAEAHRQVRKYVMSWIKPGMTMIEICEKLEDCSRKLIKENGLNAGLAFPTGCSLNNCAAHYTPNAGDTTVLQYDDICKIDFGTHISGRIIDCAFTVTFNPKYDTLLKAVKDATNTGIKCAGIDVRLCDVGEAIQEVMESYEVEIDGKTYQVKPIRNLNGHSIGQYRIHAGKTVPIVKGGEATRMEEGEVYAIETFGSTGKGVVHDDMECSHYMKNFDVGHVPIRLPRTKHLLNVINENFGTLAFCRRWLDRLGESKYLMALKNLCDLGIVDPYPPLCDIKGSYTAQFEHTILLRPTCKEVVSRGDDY

IC50 [1]	IC50 [2]	SMILES
63.1 nM	6.31 nM	COc1ncc(-c2cc(C(F)(F)F)cc3[nH]ncc23)cc1C(N)=O [Example 232, 2-methoxy-5-(6-(trifluoromethyl)-1H-indazol-4-yl)nicotinamide]
79.4 nM	7.94 nM	Cc1noc(C)c1-c1cc(C(F)(F)F)cc2[nH]ncc12 [Example 80, 3,5-dimethyl-4-(6-(trifluoromethyl)-1H-indazol-4-yl)isoxazole]
63.1 nM	3.98 nM	Cc1nn(CC(N)=O)cc1-c1cc(C(F)(F)F)cc2[nH]ncc12 [Example 274, 2-(3-methyl-4-(6-(trifluoromethyl)-1H-indazol-4-yl)-1H-pyrazol-1-yl)acetamide]
39.8 nM	6.31 nM	O=C1Cc2cc(-c3cc(C(F)(F)F)cc4[nH]ncc34)cnc2N1 [Example 238, 5-(6-(trifluoromethyl)-1H-indazol-4-yl)-1H-pyrrolo[2,3-b]pyridin-2(3H)-one]
79.4 nM	20 nM	Cc1nn(C[C@@H]2CCC(=O)N2)c(C)c1-c1cc(C(F)(F)F)cc2[nH]ncc12 [Example 364, (5S)-5-((3,5-dimethyl-4-(6-(trifluoromethyl)-1H-indazol-4-yl)-1H-pyrazol-1-yl)methyl)pyrrolidin-2-one]
158 nM	6.31 nM	NC(=O)c1cc(-c2cc(C(F)(F)F)cc3[nH]ncc23)c[nH]c1=O [Example 231, 2-oxo-5-(6-(trifluoromethyl)-1H-indazol-4-yl)-1,2-dihydropyridine-3-carboxamide]
316 nM	31.6 nM	O=C(NCc1ccccc1)c1cccc(-c2cc(C(F)(F)F)cc3[nH]ncc23)c1 [Example 34, N-benzyl-3-(6-(trifluoromethyl)-1H-indazol-4-yl)benzamide]
100 nM	6.31 nM	NS(=O)(=O)c1ccc(-c2cc(C(F)(F)F)cc3[nH]ncc23)cc1Cl [Example 343, 2-chloro-4-(6-(trifluoromethyl)-1H-indazol-4-yl)benzenesulfonamide]
100 nM	10 nM	FC(F)(F)c1cc(-c2ccncc2)c2cn[nH]c2c1 [Example 14, 4-(pyridin-4-yl)-6-(trifluoromethyl)-1H-indazole]
158 nM	10 nM	Cc1cccnc1-c1cc(C(F)(F)F)cc2[nH]ncc12 [Example 135, 4-(3-methylpyridin-2-yl)-6-(trifluoromethyl)-1H-indazole]
79.4 nM	3.98 nM	CCNC(=O)c1cccc(-c2cc(C(F)(F)F)cc3[nH]ncc23)c1 [Example 88, N-ethyl-3-(6-(trifluoromethyl)-1H-indazol-4-yl)benzamide]
39.8 nM	5.01 nM	COc1ncccc1-c1cc(C(F)(F)F)cc2[nH]ncc12 [Example 53, 4-(2-methoxypyridin-3-yl)-6-(trifluoromethyl)-1H-indazole]
15.8 nM	5.01 nM	O=C1Cc2ccc(-c3cc(C(F)(F)F)cc4[nH]ncc34)cc2N1 [Example 239, 6-(6-(trifluoromethyl)-1H-indazol-4-yl)indolin-2-one]
100 nM	5.01 nM	NS(=O)(=O)c1cncc(-c2cc(C(F)(F)F)cc3[nH]ncc23)c1 [Example 346, 5-(6-(trifluoromethyl)-1H-indazol-4-yl)pyridine-3-sulfonamide]
5010 nM	100 nM	O=C(O)c1ncncc1-c1cc(C(F)(F)F)cc2[nH]ncc12 [Example 192, 5-(6-(trifluoromethyl)-1H-indazol-4-yl)pyrimidine-4-carboxylic acid]
3980 nM	631 nM	CCOCn1ccnc1-c1cc(C(F)(F)F)cc2[nH]ncc12 [Example 145, 4-(1-(ethoxymethyl)-1H-imidazol-2-yl)-6-(trifluoromethyl)-1H-indazole]
398 nM	10 nM	O=C(c1c[nH]c(=O)c(-c2cc(C(F)(F)F)cc3[nH]ncc23)c1)N1CCOCC1 [Example 298, 5-(morpholine-4-carbonyl)-3-(6-(trifluoromethyl)-1H-indazol-4-yl)pyridin-2(1H)-one]
39.8 nM	10 nM	Cc1nc(C)c(-c2cc(C(F)(F)F)cc3[nH]ncc23)s1 [Example 40, 2,4-dimethyl-5-(6-(trifluoromethyl)-1H-indazol-4-yl)thiazole]
25.1 nM	15.8 nM	COc1ccc(CC(=O)NCCO)cc1-c1cc(C(F)(F)F)cc2[nH]ncc12 [Example 320, N-(2-hydroxyethyl)-2-(4-methoxy-3-(6-(trifluoromethyl)-1H-indazol-4-yl)phenyl)acetamide]
158 nM	6.31 nM	FC(F)(F)c1cc(-c2cccc(-n3cccn3)c2)c2cn[nH]c2c1 [Example 69, 4-(3-(1H-pyrazol-1-yl)phenyl)-6-(trifluoromethyl)-1H-indazole]
20 nM	15.8 nM	NC(=O)c1ccc(-c2cc(C(F)(F)F)cc3[nH]ncc23)c(F)c1 [Example 321, 3-fluoro-4-(6-(trifluoromethyl)-1H-indazol-4-yl)benzamide]

IC50 [1]	IC50 [2]	SMILES
501 nM	15.8 nM	Oc1cccnc1-c1cc(C(F)(F)F)cc2[nH]ncc12 [Example 214, 2-(6-(trifluoromethyl)-1H-indazol-4-yl)pyridin-3-ol]
39.8 nM	5.01 nM	FC(F)(F)c1cc(-c2cnc3[nH]ncc3c2)c2cn[nH]c2c1 [Example 243, 5-(6-(trifluoromethyl)-1H-indazol-4-yl)-1H-pyrazolo[3,4-b]pyridine]
79.4 nM	6.31 nM	Cn1ccc2c(-c3cc(C(F)(F)F)cc4[nH]ncc34)cccc21 [Example 77, 4-(1-methyl-1H-indol-4-yl)-6-(trifluoromethyl)-1H-indazole]
501 nM	10 nM	Cn1cc(-c2cc(C(F)(F)F)cc3[nH]ncc23)c(=O)n(C)c1=O [Example 82, 1,3-dimethyl-5-(6-(trifluoromethyl)-1H-indazol-4-yl)pyrimidine-2,4(1H,3H)-dione]
15.8 nM	7.94 nM	Cc1nc2cc(-c3cc(C(F)(F)F)cc4[nH]ncc34)cnc2[nH]1 [Example 341, 2-methyl-6-(6-(trifluoromethyl)-1H-indazol-4-yl)-3H-imidazo[4,5-b]pyridine]
316 nM	6.31 nM	Cn1cc(C(=O)NCC(O)CO)cc(-c2cc(C(F)(F)F)cc3[nH]ncc23)c1=O (stereo not shown) [Example 356, N-(2,3-dihydroxypropyl)-1-methyl-6-oxo-5-(6-(trifluoromethyl)-1H-indazol-4-yl)-1,6-dihydropyridine-3-carboxamide]
63.1 nM	10 nM	Cc1cc(=O)n(C)cc1-c1cc(C(F)(F)F)cc2[nH]ncc12 [Example 403, 1,4-dimethyl-5-(6-(trifluoromethyl)-1H-indazol-4-yl)pyridin-2(1H)-one]
158 nM	7.94 nM	Nc1ncc(-c2cc(C(F)(F)F)cc3[nH]ncc23)cc1C(=O)NCCO [Example 230, 2-amino-N-(2-hydroxyethyl)-5-(6-(trifluoromethyl)-1H-indazol-4-yl)nicotinamide]
79.4 nM	15.8 nM	Cc1cc(=O)n(Cc2ccccn2)cc1-c1cc(C(F)(F)F)cc2[nH]ncc12 [Example 406, 4-methyl-1-(pyridin-2-ylmethyl)-5-(6-(trifluoromethyl)-1H-indazol-4-yl)pyridin-2(1H)-one]
63.1 nM	3.98 nM	NC(=O)c1cc(-c2cc(C(F)(F)F)cc3[nH]ncc23)ccc1F [Example 110, 2-fluoro-5-(6-(trifluoromethyl)-1H-indazol-4-yl)benzamide]
63.1 nM	12.6 nM	FC(F)(F)c1cc(-c2ccc3ccncc3c2)c2cn[nH]c2c1 [Example 26, 7-(6-(trifluoromethyl)-1H-indazol-4-yl)isoquinoline]
39.8 nM	15.8 nM	FC(F)(F)c1cc(-c2cccc3[nH]ccc23)c2cn[nH]c2c1 [Example 81, 4-(1H-indol-4-yl)-6-(trifluoromethyl)-1H-indazole]
31.6 nM	6.31 nM	CN(C)CCOc1ccc(-c2cc(C(F)(F)F)cc3[nH]ncc23)cc1 [Example 280, N,N-dimethyl-2-(4-(6-(trifluoromethyl)-1H-indazol-4-yl)phenoxy)ethanamine]
15.8 nM	3.98 nM	COc1ccc(CO)cc1-c1cc(C(F)(F)F)cc2[nH]ncc12 [Example 185, (4-methoxy-3-(6-(trifluoromethyl)-1H-indazol-4-yl)phenyl)methanol]
39.8 nM	6.31 nM	Cc1cc(=O)[nH]cc1-c1cc(C(F)(F)F)cc2[nH]ncc12 [Example 390, 4-methyl-5-(6-(trifluoromethyl)-1H-indazol-4-yl)pyridin-2(1H)-one]
50.1 nM	12.6 nM	FC(F)(F)c1cc(-c2ccnc3ccccc23)c2cn[nH]c2c1 [Example 112, 4-(6-(trifluoromethyl)-1H-indazol-4-yl)quinoline]
20 nM	5.01 nM	Cc1nc(-n2cnnc2)ccc1-c1cc(C(F)(F)F)cc2[nH]ncc12 [Example 383, 4-(2-methyl-6-(4H-1,2,4-triazol-4-yl)pyridin-3-yl)-6-(trifluoromethyl)-1H-indazole]
398 nM	39.8 nM	FC(F)(F)c1cc(-c2cccc3cc[nH]c23)c2cn[nH]c2c1 [Example 76, 4-(1H-indol-7-yl)-6-(trifluoromethyl)-1H-indazole]
1580 nM	25.1 nM	Cn1cc(-c2cc(C(F)(F)F)cc3[nH]ncc23)c(=O)n(CCN2CCOCC2)c1=O [Example 313, 1-methyl-3-(2-morpholinoethyl)-5-(6-(trifluoromethyl)-1H-indazol-4-yl)pyrimidine-2,4(1H,3H)-dione]
631 nM	79.4 nM	COc1cccnc1-c1cc(C(F)(F)F)cc2[nH]ncc12 [Example 213, 4-(3-methoxypyridin-2-yl)-6-(trifluoromethyl)-1H-indazole]
